The record followed here is US4189604A, “Bestatin” (Zaidan Hojin Biseibutsu Kagaku Kenkyu Kai, priority 1975, dated 1980).

In brackets after ≈: the same amount, converted by molar mass.

In series [1] the test system is plaque forming cells in the spleen. Put plainly: Effect on humoral antibody formation to Sheep Red Blood Cell (SRBC) in mice (JERNE's hemolytic plaque technique). Particulars: for Antibody Forming Cells Number / Antibody Forming Cells Treated Group / Non-treated Group: intraperitoneal, four days. Type of series: in vivo, Mice (dd/y female). Here is the method:
The compound of Example 28 was also tested for its humoral antibody formation to find its efficacy as an immunizing cancer inhibitor. […] For the humoral antibody formation of Bestatin per se see J. Antibiotics, 29(8), 857-859 (August, 1976).
The effect of (2RS,3RS)-3-amino-2-hydroxy-4-hydroxyphenylbutanoyl-(S)-leucine on humoral antibody formation to Sheep Red Blood Cell (SRBC) in mice was studied as follows.
Mice (dd/y female) were immunized by intravenous injection of 10^8 SRBC. Intraperitoneal injection of (2RS,3RS)-3-amino-2-hydroxy-4-hydroxyphenylbutanoyl-(S)-leucine was made soon afterwards.
Four days thereafter the number of plaque forming cells in the spleen were enumerated by JERNE's hemolytic plaque technique [Jerne, N. K.; A. A. Nordin & C. Henry: "The Agar Plaque Technique for Recognizing Antibody-producing Cells" in cell-bound antibodies (Wistar Institute Press, Philadelphia, 1963), pp. 109-122].

Series [2] in a line: Contraceptive property: antifertility of Bestatin. Type of series: in vivo, ICR JCL female mice. Here is the method: (C) Contraceptive property:
Antifertility of Bestatin:
Immediately after subcutaneously administering Bestatin (10 mg./kg.) to ICR JCL female mice at the age of puberty, these mice were placed with male mice of similar line. Female mice which had copulated were killed two days after formulation of vaginal plug and the ova were collected from their uterine tubes so as to examine whether they had been fertilized or not. The fertilized ova were at 8-16 cell period.

For another series, the target named is T1, aminopeptidase B (Rattus norvegicus, UniProt O09175).
T1 construct: aminopeptidase B solution which is prepared by Sephadex 100 chromatography as described by Hopusu et al; from tissue
T1 sequence (O09175 1-650): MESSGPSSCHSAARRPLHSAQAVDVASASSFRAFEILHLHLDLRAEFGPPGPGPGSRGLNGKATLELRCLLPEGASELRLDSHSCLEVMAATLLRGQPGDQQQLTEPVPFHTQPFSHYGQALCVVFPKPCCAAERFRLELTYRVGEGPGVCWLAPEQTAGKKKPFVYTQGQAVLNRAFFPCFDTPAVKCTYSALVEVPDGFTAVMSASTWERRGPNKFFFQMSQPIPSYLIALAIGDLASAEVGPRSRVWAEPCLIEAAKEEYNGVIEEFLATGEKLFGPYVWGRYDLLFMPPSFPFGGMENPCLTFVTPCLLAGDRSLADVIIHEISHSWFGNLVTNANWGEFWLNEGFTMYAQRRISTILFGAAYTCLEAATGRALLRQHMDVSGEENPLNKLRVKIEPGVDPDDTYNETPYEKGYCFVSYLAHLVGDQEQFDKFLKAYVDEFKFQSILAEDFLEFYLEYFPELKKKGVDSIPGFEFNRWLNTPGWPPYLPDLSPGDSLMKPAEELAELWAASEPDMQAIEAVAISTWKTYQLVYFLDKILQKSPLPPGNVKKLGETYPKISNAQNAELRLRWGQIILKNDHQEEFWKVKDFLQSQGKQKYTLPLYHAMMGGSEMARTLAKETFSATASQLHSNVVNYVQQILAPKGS
Put plainly: Inhibitory activity against aminopeptidase B. Type of series: biochemical. Here is the method: (A) Inhibitory activity against aminopeptidase B Testing method: The method described by […] in Archives of Biochemistry and Biophysics 114, 557, (1966) was modfied. To the mixture of 0.3 ml. of 1 mM arginine β-naphthylamide and 1.0 Ml. of 0.1 M Tris hydrochloride buffer (pH 7.0), 0.7 Ml. of distilled water with or without a test material is added and warmed at 37° C. for 3 minutes. The reaction is started by addition of 0.2 ml. of aminopeptidase B solution which is prepared by Sephadex 100 chromatography as described by Hopusu et al. […] Fifteen minutes at room temperature thereafter, absorbance (a) at 530 nm is measured by spectrophotometer. […] The inhibition percent is calculated as follows: (b-a)/b×100.

A short description of series [3]: Organ distribution of Bleomycin B2 in the presence of Bestatin. Type of series: in vivo, ICR male mice. Particulars: 1 hour, average of 3. Here is the method:
(B) Organ distribution of Bleomycin in the presence of Bestatin:
100 mg./kg. of Bleomycin B2 was subcutaneously administered to each of three ICR male mice (4 weeks of age) and 100 mg./kg. of Bleomycin B2 and 100 mg./kg. of Bestatin were subcutaneously administered simultaneously to each of three similar mice. These 6 mice were killed one hour after administration and the quantity of Bleomycin B2 remaining in the serum and organs was determined by a thin layer disc method employing Bacillus subtilis PCI219 as the test microorganism. The results are as listed in Table 2, wherein the numerals show average values in mcg./ml.

Setting [4] is: BLM 100 mg/kg + BST (Bestatin) 100 mg/kg s.c. simultaneously.

Take `CC(C)C[C@H](NC(=O)[C@@H](O)[C@H](N)Cc1ccccc1)C(=O)O` [No. 1, [(2S,3R)-3-amino-2-hydroxy-4-phenylbutanoyl]-L-leucine]: the “number of antibody forming cells compared with non-treated group” value in series [1] (10 mcg., in words) is “nearly equal to that of non-treated group”. Moreover, in series [1] (dose 1 mg.), the “Antibody Forming Cells Number” value was 190,000±7,100 and the “Antibody Forming Cells Treated Group / Non-treated Group” value was found to be 1.52. Further, in series [1] (dose 10 mcg.), the “Antibody Forming Cells Number” value is reported as 136,250±6,500 and the “Antibody Forming Cells Treated Group / Non-treated Group” value was 1.09. In addition, the antifertility entry in series [2] (10 mg./kg. s.c.) was “has an antifertility property”. For the same compound, in series [2] (10 mg./kg. s.c., Female No. 1), the “Fertilized ovum (number)” value is recorded as 4, the “Fertilized ovum (percent)” value amounted to 40%, the “Non-fertilized ovum (number)” value turned out to be 6 and the “Non-fertilized ovum (percent)” value amounted to 60%. In series [2] (10 mg./kg. s.c., Female No. 1), the “Number of collected ovum” value came out at 10 and the “Number of corpus luteum” value is 10. In series [2] (10 mg./kg. s.c., Female No. 2), the “Fertilized ovum (number)” value is on record as 6, the “Fertilized ovum (percent)” value is 31.6%, the “Non-fertilized ovum (number)” value is 13 and the “Non-fertilized ovum (percent)” value came to 68.4%. In series [2] (10 mg./kg. s.c., Female No. 2), the “Number of collected ovum” value is reported as 19 and the “Number of corpus luteum” value was 19. Moreover, in series [2] (10 mg./kg. s.c., Total N=2), the “Fertilized ovum (number)” value is 10, the “Fertilized ovum (percent)” value came to 34.5%, the “Non-fertilized ovum (number)” value was 19 and the “Non-fertilized ovum (percent)” value is 65.5%. For the same compound, in series [2] (10 mg./kg. s.c., Total N=2), the “Number of collected ovum” value is recorded as 29 and the “Number of corpus luteum” value is listed as 29. In addition, in series [2] (copulated 4-16 hours after administration, control 70%), the “fertility of the ova collected” value is listed as 34.5%. The ID50 on aminopeptidase B (Biological Testing table after Example 29) worked out at 0.10 µg/mL (≈ 0.324 µM). Further, on aminopeptidase B (pH 7.0, 37° C., 30 minutes, Table 1), the ID50 stood at 0.10 µg/mL (≈ 0.324 µM).

Regarding Bleomycin B2 [BLM], in series [3] (setting [4]), the “Bleomycin B2 remaining in Brain” value turned out to be 2.4 µg/mL, the “Bleomycin B2 remaining in Kidney” value came out at 84.0 µg/mL, the “Bleomycin B2 remaining in Liver” value amounted to 0 µg/mL and the “Bleomycin B2 remaining in Lung” value amounted to 21.2 µg/mL. For the same compound, in series [3] (setting [4]), the “Bleomycin B2 remaining in Serum” value came out at 140 µg/mL, the “Bleomycin B2 remaining in Skin” value came to 42.0 µg/mL, the “Bleomycin B2 remaining in Spleen” value is 5.8 µg/mL and the “Bleomycin B2 remaining in Stomach” value was 2.5 µg/mL. In series [3] (BLM 100 mg/kg s.c. alone), the “Bleomycin B2 remaining in Brain” value worked out at 0 µg/mL, the “Bleomycin B2 remaining in Kidney” value was 68.0 µg/mL, the “Bleomycin B2 remaining in Liver” value stood at 0 µg/mL and the “Bleomycin B2 remaining in Lung” value turned out to be 11.2 µg/mL. In series [3] (BLM 100 mg/kg s.c. alone), the “Bleomycin B2 remaining in Serum” value is 110 µg/mL, the “Bleomycin B2 remaining in Skin” value came out at 4.5 µg/mL, the “Bleomycin B2 remaining in Spleen” value stood at 4.0 µg/mL and the “Bleomycin B2 remaining in Stomach” value came out at 1.6 µg/mL.
